Laboratory results published in publication PMC4457840, “Differential Inhibition of Signal Peptide Peptidase Family Members by Established γ-Secretase Inhibitors” (PLoS ONE, 2015).
“Also recorded” adds a separate entry of the source. Numbered stars: 1 amine (or outer) side, 2 acyl side, 3 side chain; on linkers, the order of the positions; unused ones are H or OH. Square brackets hold non-standard residues; d marks the D form. Peptide text beside a SMILES is read from it. * marks the point of attachment. X1 = CC(N[*:1])C(=O)C(F)(F)C(=O)[*:2]; Boc = CC(C)(C)OC(=O)*

Tests used:
SPPL2a = target: T1, SPPL2a (Homo sapiens, UniProt Q8TCT8); assay: FBA/SPPL2a co-transfected HEK 293T cell cleavage assay (Aβ ELISA, Western blot); format: cell-based; conditions: for inhibition of xAβ1-25/K16A secretion (in words) / inhibition at 25 µM: 25 μM; for IC50: HEK cells, 24 h, xAβ1-25/K16A by Aβ ELISA, mean ± standard error, read-out: IC50 on FBA/SPPL co-transfected cells; for inhibition at 25 µM: HEK-293T, DMSO = 100%, read-out: inhibition of the SPP/SPPLs; for rank order of inhibition: number in parenthesis in Table 3
T1 construct: expressed in transfected cells; host or cells: HEK 293T
T1 sequence (Q8TCT8 26-520): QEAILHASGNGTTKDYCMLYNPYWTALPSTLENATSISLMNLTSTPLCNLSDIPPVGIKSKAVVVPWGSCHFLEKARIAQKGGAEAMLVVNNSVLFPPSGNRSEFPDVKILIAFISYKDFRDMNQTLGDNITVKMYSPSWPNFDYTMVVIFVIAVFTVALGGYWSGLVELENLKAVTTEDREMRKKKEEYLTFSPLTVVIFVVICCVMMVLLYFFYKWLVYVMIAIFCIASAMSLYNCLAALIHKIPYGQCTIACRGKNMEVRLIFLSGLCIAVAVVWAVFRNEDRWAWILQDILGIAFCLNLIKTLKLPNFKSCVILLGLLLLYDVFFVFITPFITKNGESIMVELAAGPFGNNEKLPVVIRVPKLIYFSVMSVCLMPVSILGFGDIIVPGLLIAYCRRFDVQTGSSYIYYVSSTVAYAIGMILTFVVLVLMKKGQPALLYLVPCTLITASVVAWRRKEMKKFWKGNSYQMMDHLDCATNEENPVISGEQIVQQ
Text: (§1) Expression constructs in pcDNA6 for COOH-terminal FLAG (DYKDDDDK) and strep (WSHPQFEK) tagged SPPL2a, SPPL2b, hSPP and pSPP were generated as previously described. Untagged versions of all enzymes were also made and ligated into the pAG3 vector. Substrates (Fig 1) were designed as follows: FLAG-BRI2_1-81- Aβ1-25/K16A (FBA). The K16A mutation was incorporated to prevent potential α-secretase cleavage that would preclude ELISA based detection of the released COOH-terminal fragment. The substrate DNA was cloned into the expression vector pcDNA6. Constructs were confirmed by DNA sequencing. The overexpression of substrates was performed by transiently transfecting human embryonic kidney (HEK 293T) cells with or without SPP/SPPL vectors. Cells were grown in DMEM media supplemented with Hyclone 10% fetal bovine serum (GE, Logan, Utah, USA) and 1% penicillin/streptomycin (Life Technologies, Grand Island, NY, USA). Briefly, 2.7 μg DNA was applied to a 75% confluent 6 well plate (Corning, Tewksbury, MA, USA) using the polycation polyethylenimine (PEI) transfection method. Inhibitor testing experiments were conducted in 48 well plates with appropriately adjusted amounts of DNA and PEI and incubated 12–16 hours, after which the growth medium was replaced with fresh medium. DMSO (Sigma, St. Louis, MO, USA) and GSIs were added at the appropriate concentration. The GSIs, L685,458 and Compound W were purchased from Tocris (Tocris, Bristol, UK). (Z-LL)2 ketone, Compound E, DAPT, GSI II were purchased from Calbiochem (Merck Millipore, Billerica, MA, USA). LY-411,575 was synthesized by A. Fauq at the Mayo Clinic Chemical Core. Twenty-four hours later, the medium was collected for assay by ELISA and MS. A20 cells (TIB-208) (ATCC, Manassas, VA, USA) were cultured in RPMI-1640 medium (ATCC) supplied with 10% fetal bovine serum, 1% penicillin/streptomycin and 0.05 mM 2-mercaptoethanol (Life Technologies). At the density of 5x10^5 cells/ml, A20 cells were spun down at 1000 g for 2 min and resuspended in fresh medium supplied with DMSO or GSIs and incubated for 16 hr.
(§2) Sandwich ELISAs used for Aβ detection were performed as previously described. Briefly, Aβ and Aβ adducts with substrate TMD in conditioned media was captured with Ab5 antibody (human Aβ1–16 specific) and detected with horseradish peroxidase mAb 4G8 (Covance, Princeton, NJ, USA). Synthetic Aβ1–40 was used as standard. All ELISAs were developed with TMB substrate (KPL, Gaithersburg, Maryland, USA). Bis-Tris precast gels (Biorad, Hercules, CA, USA) were used for all SDS-PAGE. Monoclonal anti-FLAG M2 antibody (Sigma) and Aβ1–16 antibody 6E10 (Covance) were used for Western blotting. Antisera against SPPL2a, SPPL2b, hSPP and pSPP were generated as previously described and were used at dilution of 1:1000 for Western blotting. Anti-CD74 In-1 antibody (BD Bioscience, San Jose, CA, USA) was used for A20 cell lysate Western blotting at dilution of 1:1000.

SPPL2b = target: T2, SPPL2b (Homo sapiens, UniProt Q8TCT7); assay: FBA/SPPL2b co-transfected HEK 293T cell cleavage assay (Aβ ELISA, Western blot, IP/MS); format: cell-based; conditions: for inhibition of xAβ1-25/K16A secretion (in words) / inhibition at 25 µM: 25 μM, ELISA; for inhibition of FBA cleavage (10 kD ICD) by Western blot: Fig 3C upper panel; for IC50: HEK cells, 24 h, xAβ1-25/K16A by Aβ ELISA, mean ± standard error, read-out: IC50 on FBA/SPPL co-transfected cells; for inhibition at 25 µM: DMSO = 100%, read-out: inhibition of the SPP/SPPLs; for rank order of inhibition: number in parenthesis in Table 3
T2 construct: expressed in transfected cells; host or cells: HEK 293T
T2 sequence (Q8TCT7 26-592): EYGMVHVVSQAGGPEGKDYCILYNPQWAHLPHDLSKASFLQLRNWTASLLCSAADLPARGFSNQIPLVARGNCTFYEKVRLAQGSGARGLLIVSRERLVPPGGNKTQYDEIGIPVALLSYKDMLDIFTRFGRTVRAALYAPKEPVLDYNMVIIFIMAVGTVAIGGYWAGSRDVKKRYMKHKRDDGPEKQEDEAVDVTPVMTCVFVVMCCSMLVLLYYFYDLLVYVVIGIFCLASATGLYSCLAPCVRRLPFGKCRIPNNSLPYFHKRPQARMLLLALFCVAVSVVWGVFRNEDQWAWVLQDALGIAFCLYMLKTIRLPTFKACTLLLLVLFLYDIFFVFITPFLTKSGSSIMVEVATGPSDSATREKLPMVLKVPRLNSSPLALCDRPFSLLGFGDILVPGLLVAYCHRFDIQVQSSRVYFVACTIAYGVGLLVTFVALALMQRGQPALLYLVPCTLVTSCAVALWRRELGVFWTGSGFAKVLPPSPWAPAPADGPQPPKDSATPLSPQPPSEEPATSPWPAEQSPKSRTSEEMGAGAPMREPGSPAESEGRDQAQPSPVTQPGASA
Text: as §1, §2
Immunoprecipitation and mass spectrometry of xAβ1–25 in conditioned media were performed as previously described. In this study, 10 ml conditioned media were used for each experiment. ICDs were immunoprecipitated with anti-FLAG M2 magnetic beads. Cells from 10 cm dished treated with DMSO or 20 μM LY-411,575 were used for each test.

[1] = 10 μM, Western blot anti-FLAG M2

SMILES | inhibition of xAβ1-25/K16A secretion (in words) (SPPL2a; ELISA) | IC50 (SPPL2a) [nM] | inhibition at 25 µM (SPPL2a; ELISA) [%] | rank order of inhibition (SPPL2a) | cleavage products in conditioned media by IP/MS (SPPL2b; 20 μM) | inhibition of xAβ1-25/K16A secretion (in words) (SPPL2b) | inhibition of FBA cleavage (10 kD ICD) by Western blot (SPPL2b) | IC50 (SPPL2b) [nM] | inhibition at 25 µM (SPPL2b; HEK-293T) [%] | rank order of inhibition (SPPL2b) | FBA cleavage by co-transfected SPPL (in words) (SPPL2a; 10 μM, Aβ ELISA, Fig 1D) | generation of the SPP/SPPL dependent 10 kDa ICD (SPPL2a; [1]) | FBA cleavage by co-transfected SPPL (in words) (SPPL2b; 10 μM, Aβ ELISA, Fig 1D) | generation of the SPP/SPPL dependent 10 kDa ICD (SPPL2b; [1]) | inhibition at 10 µM (SPPL2b; HEK-293T, 10 μM, overnight, Aβ ELISA) [%] | inhibition of SPPL2a in dose response (SPPL2a; at the doses tested, ELISA) [%]
C[C@H](NC(=O)[C@@H](O)c1cc(F)cc(F)c1)C(=O)N[C@@H]1C(=O)N(C)c2ccccc2-c2ccccc21 [LY-411,575] | largely inhibited | 51 ± 79 | > 90 | 1 | No major cleavage product was detected | largely inhibited | greatly inhibit | 5500 ± 122 | > 90 | 4 |  |  |  |  |  | 
C[C@H](NC(=O)Cc1cc(F)cc(F)c1)C(=O)NC(C(=O)OC(C)(C)C)c1ccccc1 (stereo partly shown) [DAPT] | does not inhibit |  |  |  |  | does not inhibit | slightly reduce |  |  |  |  |  |  |  |  | 
CC(C)C[C@H](NC(=O)OCc1ccccc1)C(=O)N[C@@H](CC(C)C)C(=O)NCC(=O)CNC(=O)[C@H](CC(C)C)NC(=O)[C@H](CC(C)C)NC(=O)OCc1ccccc1 [(Z-LL)2 ketone] | largely inhibited | 177 ± 99 | > 90 | 2 |  | largely inhibited | greatly inhibit | 2140 ± 143 | > 90 | 2 | largely inhibited | significantly reduced | largely inhibited | significantly reduced | > 75 | 
CC[C@H](C)[C@H](NC(=O)[C@@H](NC(=O)OC(C)(C)C)C(C)C)C(=O)NC(C)C(=O)C(F)(F)C(=O)N[C@H](C(=O)N[C@H](C(=O)OC)[C@@H](C)CC)C(C)C (stereo partly shown) [GSI II] (Boc-VI[X1]VI-OMe) | efficiently inhibited; also recorded: largely inhibited | 8800 ± 94 |  | 4 |  | efficiently inhibited; also recorded: largely inhibited | greatly inhibit | 3600 ± 121 |  | 3 |  |  |  |  |  | 
C[C@H](NC(=O)Cc1cc(F)cc(F)c1)C(=O)N[C@H]1N=C(c2ccccc2)c2ccccc2N(C)C1=O [Compound E] |  |  |  |  |  | did not show inhibition | negligible effect |  |  |  |  |  |  |  |  | < 50
